Publication PMC4503722, “Novel Phenotypic Outcomes Identified for a Public Collection of Approved Drugs from a Publicly Accessible Panel of Assays” (PLoS ONE, 2015)

Columns and labels:
Colo320 = assay: cells; type: cell-based; settings: assay number 27; for IC50: read-out: Basal_Viability ATP Colo 320 summarized IC50
SW480 = assay: cells; type: cell-based; settings: assay number 24; for IC50: read-out: Basal_Viability ATP SW480 summarized IC50
[1] = test system: HCT116 cells treated with a GSK3β inhibitor; assay: cells; type: cell-based; settings: assay number 26, GSK3b inhibitor pretreated; for IC50: read-out: GSK3b inh pretreated_Viability ATP HCT116 summarized IC50
[2] = test system: ECFC/ADSC co-culture cell nuclei number; settings: for IC50: read-out: VEGF_ADSC\ECFC Angio Hoechst NucArea summarized IC50
[3] = test system: endothelial tube formation in co-cultures of ECFCs and ADSCs treated with VEGF; assay: cells; type: cell-based, human; settings: for IC50: read-out: VEGF_ADSC\ECFC Angio CD31 TubeArea summarized IC50
HT-29 = assay: cells; type: cell-based; settings: assay number 28; for IC50: read-out: Basal_Viability ATP HT-29 summarized IC50
DLD-1 = assay: cells; type: cell-based; settings: assay number 23; for IC50: read-out: Basal_Viability ATP DLD-1 summarized IC50
SNU-C1 = assay: cells; type: cell-based; settings: assay number 30; for IC50: read-out: Basal_Viability ATP SNU-C1 summarized IC50
HCT116 = assay: cells; type: cell-based; settings: assay number 25, basal; for IC50: read-out: Basal_Viability ATP HCT116 summarized IC50
RKO = assay: cells; type: cell-based; settings: assay number 29; for IC50: read-out: Basal_Viability ATP RKO summarized IC50

O=C(Nc1ccc(Cl)cc1)Nc1ccc(Cl)c(Cl)c1 [NCGC00164034-05]
IC50 (Colo320; basal): 0.362 µM | IC50 (SW480; basal): 0.897 µM | IC50 [1]: 0.362 µM | IC50 [2]: > 10 µM | IC50 [3]: > 10 µM | IC50 (HT-29; basal): 0.383 µM | IC50 (DLD-1; basal): 0.323 µM | IC50 (SNU-C1; basal): 0.335 µM | IC50 (HCT116): 0.228 µM | IC50 (RKO; basal): 0.288 µM

CCCCC(CC)COC(=O)CC(C(=O)OCC(CC)CCCC)S(=O)(=O)O (stereo not drawn) [NCGC00164140-07]
IC50 (Colo320; basal): > 20 µM | IC50 (SW480; basal): > 20 µM | IC50 [1]: 16.6 µM | IC50 [2]: > 10 µM | IC50 [3]: > 10 µM | IC50 (HT-29; basal): > 20 µM | IC50 (DLD-1; basal): > 20 µM | IC50 (SNU-C1; basal): > 20 µM | IC50 (HCT116): > 20 µM | IC50 (RKO; basal): > 20 µM

CO[C@H]1O[C@@H]2O[C@@]3(C)CC[C@H]4[C@H](C)CC[C@@H]([C@H]1C)[C@@]24OO3 [NCGC00164591-04]
Basal_Viability ATP Colo 320 IC50/EC50 (Colo320; basal): > 20 µM | Basal_Viability ATP SW480 IC50/EC50 (SW480; basal): > 20 µM | GSK3b inh pretreated_Viability ATP HCT116 IC50/EC50 [1]: > 20 µM | VEGF_ADSC\ECFC Angio Hoechst NucArea IC50/EC50 [2]: > 10 µM | VEGF_ADSC\ECFC Angio CD31 TubeArea IC50/EC50 [3]: > 10 µM | Basal_Viability ATP HT-29 IC50/EC50 (HT-29; basal): > 20 µM | Basal_Viability ATP DLD-1 IC50/EC50 (DLD-1; basal): > 20 µM | Basal_Viability ATP SNU-C1 IC50/EC50 (SNU-C1; basal): > 20 µM | Basal_Viability ATP HCT116 IC50/EC50 (HCT116): > 20 µM | Basal_Viability ATP RKO IC50/EC50 (RKO; basal): > 20 µM

Cl.NC1=NCC2c3ccccc3Cc3ccccc3N12 (stereo not drawn) [NCGC00165791-04]
Basal_Viability ATP Colo 320 IC50/EC50 (Colo320; basal): > 20 µM | Basal_Viability ATP SW480 IC50/EC50 (SW480; basal): > 20 µM | GSK3b inh pretreated_Viability ATP HCT116 IC50/EC50 [1]: > 20 µM | VEGF_ADSC\ECFC Angio Hoechst NucArea IC50/EC50 [2]: > 10 µM | VEGF_ADSC\ECFC Angio CD31 TubeArea IC50/EC50 [3]: > 10 µM | Basal_Viability ATP HT-29 IC50/EC50 (HT-29; basal): > 20 µM | Basal_Viability ATP DLD-1 IC50/EC50 (DLD-1; basal): > 20 µM | Basal_Viability ATP SNU-C1 IC50/EC50 (SNU-C1; basal): > 20 µM | Basal_Viability ATP HCT116 IC50/EC50 (HCT116): > 20 µM | Basal_Viability ATP RKO IC50/EC50 (RKO; basal): > 20 µM

CCN(CC)C(=O)c1cccnc1 [NCGC00166026-02]
Basal_Viability ATP Colo 320 IC50/EC50 (Colo320; basal): > 20 µM | Basal_Viability ATP SW480 IC50/EC50 (SW480; basal): > 20 µM | GSK3b inh pretreated_Viability ATP HCT116 IC50/EC50 [1]: > 20 µM | VEGF_ADSC\ECFC Angio Hoechst NucArea IC50/EC50 [2]: > 10 µM | VEGF_ADSC\ECFC Angio CD31 TubeArea IC50/EC50 [3]: > 10 µM | Basal_Viability ATP HT-29 IC50/EC50 (HT-29; basal): > 20 µM | Basal_Viability ATP DLD-1 IC50/EC50 (DLD-1; basal): > 20 µM | Basal_Viability ATP SNU-C1 IC50/EC50 (SNU-C1; basal): > 20 µM | Basal_Viability ATP HCT116 IC50/EC50 (HCT116): > 20 µM | Basal_Viability ATP RKO IC50/EC50 (RKO; basal): > 20 µM

CCCCCCCCCCCCCCCCCC[N+](C)(C)CCC[Si](OC)(OC)OC.[Cl-] [NCGC00166112-02]
Basal_Viability ATP Colo 320 IC50/EC50 (Colo320; concentration response): > 20 µM | Basal_Viability ATP SW480 IC50/EC50 (SW480; concentration response): > 20 µM | GSK3b inh pretreated_Viability ATP HCT116 IC50/EC50 ([1]; concentration response): > 20 µM | VEGF_ADSC\ECFC Angio Hoechst NucArea IC50/EC50 [2]: > 10 µM | VEGF_ADSC\ECFC Angio CD31 TubeArea IC50/EC50 [3]: > 10 µM | Basal_Viability ATP HT-29 IC50/EC50 (HT-29; concentration response): > 20 µM | Basal_Viability ATP DLD-1 IC50/EC50 (DLD-1; concentration response): > 20 µM | Basal_Viability ATP SNU-C1 IC50/EC50 (SNU-C1; concentration response): > 20 µM | Basal_Viability ATP HCT116 IC50/EC50 (HCT116; concentration response): > 20 µM | Basal_Viability ATP RKO IC50/EC50 (RKO; concentration response): > 20 µM
